Measurements: patent US20130142831A1, “COMPOUNDS FOR INFLAMMATION AND IMMUNE-RELATED USES” (Synta Pharmaceuticals Corp., priority 2004, published 2013)

Tested on: IL-2 production
Test: Inhibition of IL-2 production in PHA-activated Jurkat cells
Format: cell-based
Conditions: Homo sapiens, PHA 2.5 μg/mL, 20 hours, bins given in nM
Description: Jurkat cells were placed in a 96 well plate (0.5 million cells per well in 1% FBS medium) then test compounds of this invention were added at different concentrations. After 10 minutes, the cells were activated with PHA (final concentration 2.5 μg/mL) and incubated for 20 hours at 37° C. under CO2. The final volume was 200 μL. Following incubation, the cells were centrifuged and the supernatants collected and stored at −70° C. prior to assaying for IL-2 production. A commercial kit (IL-2 Eli-pair, Diaclone Research, Besancon, France) was used to detect production of IL-2, from which dose response curves were obtained. The IC50 value was calculated as the concentration at which. 50% of maximum IL-2 production after stimulation was inhibited versus a non-stimulation control.

SMILES	IC50 [nM]
COc1ccc2c(c1)nc(C(F)(F)F)n2-c1ccc(NC(=O)c2cc(F)cc(F)c2F)cc1 [Compound 2, 2,3,5-Trifluoro-N-[4-(2-trifluoromethyl-5-methoxy-benzoimidazol-1-yl)-phenyl]-benzamide]	< 100
COc1ccc2c(c1)nc(C(F)(F)F)n2-c1ccc(NC(=O)c2ccc(F)c(F)c2F)cc1 [Compound 3, 2,3,4-Trifluoro-N-[4-(2-trifluoromethyl-5-methoxy-benzoimidazol-1-yl)-phenyl]-benzamide]	< 100
COc1ccc2c(c1)nc(C(F)(F)F)n2-c1ccc(NC(=O)c2ccncc2C)cc1 [Compound 5, 3-Methyl-N-[4-(2-trifluoromethyl-5-methoxy-benzoimidazol-1-yl)-phenyl]-isonicotinamide]	< 100
COc1ccc2c(c1)nc(C(F)(F)F)n2-c1ccc(NC(=O)c2cc(F)c(Cl)cc2Cl)cc1 [Compound 7, 2,4-Dichloro-5-fluoro-N-[4-(2-trifluoromethyl-5-methoxy-benzoimidazol-1-yl)-phenyl]-benzamide]	< 100
O=C(Nc1ccc(-c2c(C(F)(F)F)cc3n2CCCC3)cc1)c1cccc(F)c1F [Compound 8, 2,3-Difluoro-N-[4-(2-trifluoromethyl-5,6,7,8-tetrahydroindolizin-3-yl)-phenyl]-benzamide]	< 100
COc1ccc2c(c1)nc(C(F)(F)F)n2-c1ccc(NC(=O)c2cccc([N+](=O)[O-])c2)cc1 [Compound 10, 3-Nitro-N-[4-(2-trifluoromethyl-5-methoxy-benzoimidazol-1-yl)-phenyl]-benzamide]	< 100
CSc1nc2ccccc2n1-c1ccc(NC(=O)c2cccc(F)c2F)cc1 [Compound 11, 2,3-Difluoro-N-[4-(2-methylsulfanyl-benzoimidazol-1-yl)-phenyl]-benzamide]	< 100
Cc1cc(NC(=O)c2cccc(F)c2F)ccc1-n1c(C(F)(F)F)nc2ccccc21 [Compound 17, 2,3-Difluoro-N-[3-methyl-4-(2-trifluoromethyl-benzoimidazol-1-yl)-phenyl]-benzamide]	100 to 500
Cc1ccccc1C(=O)Nc1ccc(-c2c(C(F)(F)F)cc3n2CCCC3)cc1 [Compound 18, 2-Methyl-N-[4-(2-trifluoromethyl-5,6,7,8-tetrahydroindolizin-3-yl)-phenyl]-benzamide]	100 to 500
CC(C)(C)OC(=O)Nc1cc(F)c(F)c(C(=O)Nc2ccc(-n3c(C(F)(F)F)nc4ccccc43)cc2)c1F [Compound 22, N-(3-{N-[4-(2-trifluoromethyl-benzoimidazol-1-yl)-phenyl]-carbamoyl}-2,4,5-trifluoro-phenyl)-carbamic acid t-butyl ester]	100 to 500
O=C(Nc1ccc(-n2c(Cl)nc3ccccc32)cc1)c1cccc(F)c1F [Compound 23, 2,3-Difluoro-N-[4-(2-chloro-benzoimidazol-1-yl)-phenyl]-benzamide]	100 to 500
Cc1nnsc1C(=O)Nc1ccc(-c2c(Cl)cc3n2CCCC3)cc1 [Compound 24, 4-Methyl-[1,2,3]thiadiazole-5-carboxylic acid {N-[4-(2-chloro-5,6,7,8-tetrahydroindolizin-3-yl)-phenyl]} amide]	100 to 500
O=C(Nc1ccc(-n2c(Br)nc3ccccc32)cc1)c1cccc(F)c1F [Compound 28, 2,3-Difluoro-N-[4-(2-bromo-benzoimidazol-1-yl)-phenyl]-benzamide]	100 to 500
O=C(Nc1ccc(-n2c(C(F)(F)F)nc3ccccc32)c(C(F)(F)F)c1)c1cccc(F)c1F [Compound 30, 2,3-Difluoro-N-[3-trifluoromethyl-4-(2-trifluoromethyl-benzoimidazol-1-yl)-phenyl]-benzamide]	100 to 500
CC(C)(C)OC(=O)Nc1ccc(C(=O)Nc2ccc(-n3c(C(F)(F)F)nc4ccccc43)cc2)c(F)c1F [Compound 31, N-(4-{N-[4-(2-trifluoromethyl-benzoimidazol-1-yl)-phenyl]-carbamoyl}-2,3-difluoro-phenyl)-carbamic acid t-butyl ester]	100 to 500
COc1cc2nc(C(F)(F)F)n(-c3ccc(NC(=O)c4cccc(F)c4F)cc3)c2cc1OC [Compound 32, 2,3-Difluoro-N-[4-(2-trifluoromethyl-5,6-dimethoxy-benzoimidazol-1-yl)-phenyl]-benzamide]	100 to 500
Fc1ccc(F)c(NC(=S)Nc2ccc(-n3c(C(F)(F)F)nc4ccccc43)nc2)c1 [Compound 34, N′-[2-(2-trifluoromethyl-benzoimidazol-1-yl)-pyrid-5-yl]-N-(2,5-difluoro-phenyl)-thiourea]	100 to 500
CC(C)(C)c1ccc2c(c1)nc(C(F)(F)F)n2-c1ccc(NC(=O)c2cccc(F)c2F)cc1 [Compound 35, 2,3-Difluoro-N-[4-(2-trifluoromethyl-5-tert-butyl-benzoimidazol-1-yl)-phenyl]-benzamide]	100 to 500
N#Cc1cc(NC(=O)c2cccc(F)c2F)ccc1-n1c(C(F)(F)F)nc2ccccc21 [Compound 37, 2,3-Difluoro-N-[3-cyano-4-(2-trifluoromethyl-benzoimidiazol-1-yl)-phenyl]-benzamide]	100 to 500

Continued, values first:

IC50 [nM]	SMILES
< 100	COc1ccc2c(c1)nc(C(F)(F)F)n2-c1ccc(NC(=O)c2cccc(F)c2F)cc1 [Compound 4, 2,3-Difluoro-N-[4-(2-trifluoromethyl-5-methoxy-benzoimidazol-1-yl)-phenyl]-benzamide]
< 100	COc1ccc2c(c1)nc(C(F)(F)F)n2-c1ccc(NC(=O)c2ccncc2F)cc1 [Compound 6, 3-Fluoro-N-[4-(2-trifluoromethyl-5-methoxy-benzoimidazol-1-yl)-phenyl]-isonicotinamide]
< 100	Fc1cccc(C(=S)Nc2ccc(-n3c(C(F)(F)F)nc4ccccc43)cc2)c1F [Compound 12, 2,3-Difluoro-N-[4-(2-trifluoromethyl-benzoimidazol-1-yl)-phenyl]-thiobenzamide]
< 100	O=C(Nc1ccc(-n2c(C(F)(F)F)nc3ccccc32)cc1)c1cccc(Cl)c1Cl [Compound 13, 2,3-Dichloro-N-[4-(2-trifluoromethyl-benzoimidazol-1-yl)-phenyl]-benzamide]
< 100	COc1ccc2nc(C(F)(F)F)n(-c3ccc(NC(=O)c4cccc(F)c4F)cc3)c2c1 [Compound 14, 2,3-Difluoro-N-[4-(2-trifluoromethyl-6-methoxy-benzoimidazol-1-yl)-phenyl]-benzamide]
100 to 500	O=C(Nc1ccc(-n2c(C(F)(F)F)nc3ccccc32)cc1)c1cccc(Cl)c1F [Compound 15]
100 to 500	Nc1cc(F)c(F)c(C(=O)Nc2ccc(-n3c(C(F)(F)F)nc4ccccc43)cc2)c1F [Compound 16, 2,3,6-Trifluoro-5-amino-N-[4-(2-trifluoromethyl-benzoimidazol-1-yl)-phenyl]-benzamide]
100 to 500	N#Cc1ccc2nc(C(F)(F)F)n(-c3ccc(NC(=O)c4cccc(F)c4F)cc3)c2c1 [Compound 20, 2,3-Difluoro-N-[4-(2-trifluoromethyl-6-cyano-benzoimidazol-1-yl)-phenyl]-benzamide]
100 to 500	Nc1cccc2c1nc(C(F)(F)F)n2-c1ccc(NC(=O)c2cccc(F)c2F)cc1 [Compound 21, 2,3-Difluoro-N-[4-(2-trifluoromethyl-4-amino-benzoimidazol-1-yl)-phenyl]-benzamide]
100 to 500	O=C(Nc1ccc(-n2c(C(F)(F)F)nc3ccccc32)cc1)c1cc(F)ccc1F [Compound 26, 2,5-Difluoro-N-[4-(2-trifluoromethyl-benzoimidazol-1-yl)-phenyl]-benzamide]
100 to 500	O=C(Nc1ccc(-n2c(C(F)(F)F)nc3ccccc32)cc1)c1ccncc1F [Compound 27, 3-Fluoro-N-[4-(2-trifluoromethyl-benzoimidazol-1-yl)-phenyl]-isonicotinamide]
100 to 500	Cc1nnsc1C(=O)Nc1ccc(-n2c(C(F)(F)F)nc3ccccc32)cc1 [Compound 29, 4-Methyl-[1,2,3]thiadiazole-5-carboxylic acid {N-[4-(2-trifluoromethyl-benzoimidazol-1-yl)-phenyl]} amide]
100 to 500	O=C(Nc1ccc(-n2c(I)nc3ccccc32)cc1)c1cccc(F)c1F [Compound 33, 2,3-Difluoro-N-[4-(2-iodo-benzoimidazol-1-yl)-phenyl]-benzamide]
100 to 500	O=C(Nc1ccc(-n2c(C(F)(F)F)nc3ccccc32)c(Cl)c1)c1cc(F)ccc1F [Compound 38, 2,5-Difluoro-N-[3-chloro-4-(2-trifluoromethyl-benzoimidazol-1-yl)-phenyl]-benzamide]
100 to 500	Nc1ccc2c(c1)nc(C(F)(F)F)n2-c1ccc(NC(=O)c2cccc(F)c2F)cc1 [Compound 39, 2,3-Difluoro-N-[4-(2-trifluoromethyl-5-amino-benzoimidazol-1-yl)-phenyl]-benzamide]
100 to 500	C[S+]([O-])c1nc2ccccc2n1-c1ccc(NC(=O)c2cccc(F)c2F)cc1 (centres unmarked) [Compound 40, 2,3-Difluoro-N-[4-(2-methanesulfinyl-benzoimidazol-1-yl)-phenyl]-benzamide]

Same assay, conditions: Homo sapiens, PHA 2.5 μg/mL, 20 hours, bins given with μM limit

IC50 [nM]	SMILES
> 1000	CC(C)c1nc2ccccc2n1-c1ccc(NC(=O)c2cccc(F)c2F)cc1 [Compound 49, 2,3-Difluoro-N-[4-(2-isopropyl-benzoimidazol-1-yl)-phenyl]-benzamide]
> 1000	O=C(Nc1ccc(-n2c(C(F)(F)F)nc3ccccc32)cc1)Nc1cc(F)ccc1F [Compound 50, N′-[4-(2-trifluoromethy-benzoimidazol-1-yl)-phenyl]-N-(2,5-difluoropheyl)-urea]
> 1000	O=C(Nc1ccc(-n2c(C(F)(F)F)nc3ccccc32)cc1)c1cc[n+]([O-])cc1F [Compound 51, 1-Oxo-3-fluoro-N-[4-(2-trifluoromethyl-benzoimidazol-1-yl)-phenyl]-isonicotinamide]
